Usually IC50 stands for the concentration that inhibits the measured activity by half.

The structures appear in SMILES notation.

This is an account of results in US5866571A, “9-substituted 2-(2-n-alkoxyphenyl)-purin-6-ones” (Bayer Aktiengesellschaft, priority 1995, dated 1999).

Common to all, as to type: biochemical
In experiment [1] the test system is PDE V (cGMP-specific PDE V). Nature of the experiment: Inhibition of the phosphodiesterases in vitro: PDE V. Particulars: enzyme from porcine small intestine, porcine aorta and/or human blood platelets; 10^-6 mol/l nucleotide, pH 7.5, 30 minutes. As for the experimental part: (§1) Activity of the phosphodiesterases (PDE's)
(§2) The cGMP-stimulatable PDE II, the cGMP-inhibitable PDE III and the cAMP-specific PDE IV were isolated from either the porcine or the bovine myocardium. The Ca-calmodulin-stimulatable PDE I was isolated from porcine aorta or porcine brain. The cGMP-specific PDE V was obtained from porcine small intestine, porcine aorta and/or human blood platelets. Purification was carried out by anion exchange chromatography on MonoQ^R Pharmacia essentially by the method of M. Hoey and Miles D. Houslay, Biochemical Pharmacology, Volume 40, 193-202 (1990).
(§3) The enzyme activity is determined in a test batch of 100 μl in 20 mM Tris/HCl buffer of pH 7.5 which contains 5 mM MgCl2, 0.1 mg/ml of bovine serum albumin and either 800 Bq of ^3 HcAMP or ^3 HcGMP. The final concentration of the corresponding nucleotides is 10^-6 mol/l. The reaction is started by addition of the enzyme and the amount of enzyme is chosen such that about 50% of the substrate is reacted during the incubation time of 30 minutes. In order to test the cGMP-stimulatable PDE II, ^3 HcAMP is used as the substrate and 10^-6 mol/l of non-labelled cGMP is added to the batch. In order to test the Ca-calmodulin-dependent PDE I, 1 μM CaCl2 and 0.1 μM calmodulin are also added to the reaction batch. The reaction is stopped by addition of 100 μl of acetonitrile which contains 1 mM cAMP and 1 mM AMP. 100 μl of the reaction batch are separated on the […] and the cleavage products are determined quantitatively "on line" with a flow-through scintillation counter. The substance concentration at which the rate of reaction is reduced by 50% is measured.
(§4) Inhibition of the phosphodiesterases in vitro

The subject of experiment [2] is PDE II (cGMP-stimulatable PDE II). Briefly: Inhibition of the phosphodiesterases in vitro: PDE II. Conditions: enzyme from porcine or bovine myocardium; ^3HcAMP substrate plus 10^-6 mol/l non-labelled cGMP, pH 7.5, 30 minutes. As for the experimental part: as §1, §2, §3, §4
Experiment [3] concerns PDE I (Ca-calmodulin-stimulatable PDE I). Nature of the experiment: Inhibition of the phosphodiesterases in vitro: PDE I. Particulars: enzyme from porcine aorta or porcine brain; 1 μM CaCl2, 0.1 μM calmodulin; 10^-6 mol/l nucleotide, pH 7.5, 30 minutes. As for the experimental part: as §1, §2, §3, §4

In the case of `CCCCCCC(C(C)O)n1cnc2c(=O)[nH]c(-c3ccccc3OCCC)nc21` (stereo not drawn) [Example 3, 9-(2-hydroxy-3-nonyl)-2-(2-n-propoxyphenyl)-purin-6-one], the values for the IC50 in experiment [1], in experiment [2] and in experiment [3] were 0.1 µM, 6 µM and 50 µM, respectively.

Turning to `CCCOc1ccccc1-c1nc2c(ncn2C(CCc2ccccc2)C(C)O)c(=O)[nH]1` (stereo not drawn) [Example 4, 9-(2-hydroxy-5-phenyl-3-methyl)-2-(2-n-propoxyphenyl)-purin-6-one], the IC50 was 5 µM in experiment [1], 1 µM in experiment [2] and 2 µM in experiment [3].

Take `CCCOc1ccccc1-c1nc2c(ncn2C(CCCc2ccccc2)C(C)O)c(=O)[nH]1` (stereo not drawn) [Example 5, 9-(2-hydroxy-6-phenyl-3-hexyl)-2-(2-n-propoxyphenyl)-purin-6-one]: the IC50 in experiment [1] was found to be 2 µM; in experiment [2], 0.5 µM; in experiment [3], 1 µM.

For the molecule `CCCOc1ccccc1-c1nc2c(ncn2C(C)CCCc2ccccc2)c(=O)[nH]1` (stereo not drawn) [Example 11], the IC50 came out at 0.5 µM in experiment [1], 0.3 µM in experiment [2] and 0.5 µM in experiment [3].

For `CCCCCCC(C(C)NC(C)=O)n1cnc2c(=O)[nH]c(-c3ccccc3OCCC)nc21` (stereo not drawn) [Example 37, 9-(2-Acetamido-3-nonyl)-2-(2-n-propoxyphenyl)-purin-6-one], the IC50 in experiment [1] was found to be 1 µM; in experiment [2], 2 µM; in experiment [3], 2 µM.

For `CCCCCCC(CC)n1cnc2c(=O)[nH]c(-c3cc(S(=O)(=O)N4CCOCC4)ccc3OCCC)nc21` (stereo not drawn) [Example 57], the values for the IC50 in experiment [1], in experiment [2] and in experiment [3] were 0.1 µM, 0.3 µM and 0.3 µM, respectively.
